The results in this text go back to patent US5955421A, “Peptides containing D-2-alkyl-Tryptophan” (priority 1990, dated 1999).

Molecules are shown by their SMILES. Square brackets hold non-standard residues; d marks the D form. Peptide text beside a SMILES is read from it. dTrp(2-Me) = Cc1[nH]c2ccccc2c1C[C@@H](N)C(=O)O; Trp(2-Me) = Cc1[nH]c2ccccc2c1C[C@H](N)C(=O)O; GABA = NCCCC(=O)O

Series [1] relates to serum growth hormone and cortisol. The series can be described thus: Oral capsule in healthy subjects, serum growth hormone and cortisol. It counts as in vivo, human. The conditions noted are these: 20 mg capsule, 5 healthy subjects. The procedure:
A capsule containing 20 mg of the peptide of Example 18 was orally administered to 5 healthy subjects (3 men and 2 women, ages 30 to 66) and serum growth hormone and cortisol levels were measured at various times after administration.

A further series deals with plasma testosterone. The conditions noted are these: dog, in vivo, sc. The procedure:
The peptide of Example 3 was formulated in a polymeric PLGA implant in the form of rods which were about 1 cm long and 1 mm in diameter. These implants contained a loading of either 20 or 25% of the peptide (an amount of 7 or 10 mg), and were inserted subcutaneously into in male Beagle dogs which weighed between 10 and 12 kg.

Take `Cc1[nH]c2ccccc2c1C[C@H](NC(=O)[C@@H](Cc1c(C)[nH]c2ccccc12)NC(=O)[C@@H](Cc1c(C)[nH]c2ccccc12)NC(=O)CCCN)C(=O)N[C@@H](CCCCN)C(N)=O` [Example 18, GAB-D-2-Mrp-D-2-Mrp-2-Mrp-Lys-NH2] (H-[GABA][dTrp(2-Me)][dTrp(2-Me)][Trp(2-Me)]K-NH2): the “cortisol levels” value in series [1] is “without cortisol stimulation”.
As for `CCNC(=O)[C@@H]1CCCN1C(=O)[C@H](CCCNC(=N)N)NC(=O)[C@H](CC(C)C)NC(=O)[C@@H](Cc1c(C)[nH]c2ccccc12)NC(=O)[C@H](Cc1ccc(O)cc1)NC(=O)[C@H](CO)NC(=O)[C@H](Cc1c[nH]c2ccccc12)NC(=O)[C@H](Cc1c[nH]cn1)NC(=O)[C@@H]1CCC(=O)N1` [Example 3, Pyro-Glu-His-Trp-Ser-Tyr-D-2-alkyl-Trp-Leu-Arg-Pro-NHCH2 CH3], the clinical side effects result in the series with plasma testosterone was “No clinical side effects were observed”.
